Assay results from ChEMBL document CHEMBL1143353, “Pyrazolo[1,5-a]-1,3,5-triazine as a purine bioisostere: access to potent cyclin-dependent kinase inhibitor (R)-roscovitine analogue” (J Med Chem, 2009).

What was measured:
HeLa = assay: Antiproliferative activity against human HeLa cells after 72 hrs by ViaLight assay; assay type: functional, cell-based
SW-620 = assay: cells; settings: Homo sapiens, SW-620, 72 h
Description: Antiproliferative activity against human SW620 cells after 72 hrs by ViaLight assay

UACC-257 = assay: Antiproliferative activity against human UACC257 cells after 72 hrs by ViaLight assay; assay type: functional; settings: UACC-257, 72 h
[1] = target: Cyclin-dependent kinase 7/ cyclin H (Homo sapiens, UniProt P50613); assay: Inhibition of human recombinant CDK7/cyclin H expressed in baculovirus-infected insect cells
CCRF-CEM = assay: cells; settings: Homo sapiens, 72 h
Description: Antiproliferative activity against human CCRF-CEM cells after 72 hrs by ViaLight assay

SN12C = assay: Antiproliferative activity against human SN12C cells after 72 hrs by ViaLight assay; assay type: functional
OVCAR-8 = assay: Antiproliferative activity against human OVCAR8 cells after 72 hrs by ViaLight assay; assay type: functional; settings: OVCAR-8, 72 h
U-937 = assay: Antiproliferative activity against human U937 cells after 72 hrs by ViaLight assay; assay type: functional, cell-based
BT-549 = assay: Antiproliferative activity against human BT549 cells after 72 hrs by ViaLight assay; assay type: functional; settings: BT-549, 72 h
HEK-293T = assay: Antiproliferative activity against human 293T cells after 72 hrs by ViaLight assay; assay type: functional, cell-based
[2] = read-out: LC50 (the source's name)
[3] = read-out: pLC50 (the source's name) (converted)

Chain of Cyclin-dependent kinase 7/ cyclin H (P51946 whole entry): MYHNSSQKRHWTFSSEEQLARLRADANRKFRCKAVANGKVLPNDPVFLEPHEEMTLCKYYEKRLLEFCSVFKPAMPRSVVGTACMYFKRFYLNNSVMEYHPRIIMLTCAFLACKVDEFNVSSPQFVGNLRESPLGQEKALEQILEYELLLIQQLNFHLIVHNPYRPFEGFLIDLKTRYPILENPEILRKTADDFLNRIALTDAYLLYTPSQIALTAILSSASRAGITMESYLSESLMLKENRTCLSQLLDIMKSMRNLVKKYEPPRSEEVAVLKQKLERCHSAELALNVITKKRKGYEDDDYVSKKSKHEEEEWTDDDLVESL
Chain of Cyclin-dependent kinase 7/ cyclin H (P50613 whole entry): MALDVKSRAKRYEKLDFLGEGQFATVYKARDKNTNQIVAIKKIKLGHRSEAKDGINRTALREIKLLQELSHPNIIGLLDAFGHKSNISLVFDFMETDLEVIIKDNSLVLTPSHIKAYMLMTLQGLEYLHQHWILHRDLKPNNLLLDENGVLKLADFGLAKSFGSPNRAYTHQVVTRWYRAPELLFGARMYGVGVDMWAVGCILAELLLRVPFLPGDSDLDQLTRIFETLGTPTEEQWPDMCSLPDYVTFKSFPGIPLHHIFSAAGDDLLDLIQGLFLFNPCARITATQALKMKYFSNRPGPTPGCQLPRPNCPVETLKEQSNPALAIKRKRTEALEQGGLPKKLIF

`CC[C@H](CO)Nc1nc(NCc2ccccc2)n2ncc(C(C)C)c2n1` was tested, and the Activity (HeLa) was “Dose-dependent effect”, the GI50 (SW-620) was 1380 nM and the TGI (SW-620) was 5.56 µM. For the same compound, the CC50 (SW-620; read-out: LC50) was over 100 µM, the GI50 (SW-620; read-out: pGI50 (converted)) was 1120 nM and the CC50 (SW-620; read-out: pLC50 (converted)) was 100 µM. It also gave a TGI (SW-620; read-out: pTGI) of 5.5 µM, a GI50 (UACC-257; read-out: GI50) of 3.56 µM and a CC50 (UACC-257; [2]) of over 100 µM. For the same compound, the TGI (UACC-257; read-out: TGI) was 15 µM, the GI50 (UACC-257; read-out: pGI50 (converted)) was 3.24 µM and the CC50 (UACC-257; [3]) was 100 µM. For the same compound, the TGI (UACC-257; read-out: pTGI (converted)) was 24 µM, the IC50 [1] was 500 nM and the GI50 (CCRF-CEM) was 650 nM. It also gave a TGI (CCRF-CEM) of 9.26 µM, a CC50 (CCRF-CEM; read-out: LC50) of over 100 µM and a GI50 (CCRF-CEM; read-out: pGI50 (converted)) of 646 nM. For the same compound, the CC50 (CCRF-CEM; read-out: pLC50 (converted)) was 100 µM, the TGI (CCRF-CEM; read-out: pTGI) was 9.33 µM and the GI50 (SN12C; read-out: GI50) was 2410 nM. For the same compound, the CC50 (SN12C; [2]) was 58.1 µM, the TGI (SN12C; read-out: TGI) was 14.4 µM and the GI50 (SN12C; read-out: pGI50 (converted)) was 3020 nM. The CC50 (SN12C; [3]) was 57.5 µM, the TGI (SN12C; read-out: pTGI (converted)) was 14.5 µM and the GI50 (OVCAR-8; read-out: GI50) was 2150 nM. It also gave a CC50 (OVCAR-8; [2]) of over 100 µM, a TGI (OVCAR-8; read-out: TGI) of 54.8 µM and a GI50 (OVCAR-8; read-out: pGI50 (converted)) of 2450 nM. For the same compound, the CC50 (OVCAR-8; [3]) was 100 µM, the TGI (OVCAR-8; read-out: pTGI (converted)) was 55 µM and the Activity (U-937) was “Dose-dependent effect”. For the same compound, the GI50 (BT-549; read-out: GI50) was 1560 nM, the CC50 (BT-549; [2]) was 36.1 µM and the TGI (BT-549; read-out: TGI) was 5.29 µM. The GI50 (BT-549; read-out: pGI50 (converted)) was 2450 nM, the CC50 (BT-549; [3]) was 36.3 µM and the TGI (BT-549; read-out: pTGI) was 5.25 µM. The Activity (HEK-293T) was “Dose-dependent effect”.
